Test results from patent US9611263B2, “Compounds that modulate intracellular calcium” (CALCIMEDICA, INC., priority 2013, dated 2017).

Legend:
STIM1 and Orai1 = STIM1 and Orai1 (Homo sapiens, UniProt Q96D31); settings: HEK293 cells co-expressing STIM1 and Orai1; cited from earlier work
Jurkat cells [1] = settings: cited from earlier work
Jurkat cells [2] = settings: cited from earlier work; remark: listed apart in the source
Orai1/STIM1 = target: T1, Orai1/STIM1 (Homo sapiens, UniProt Q96D31); assay: Fluorescence-based assay of store-operated calcium entry in Orai1/STIM1 stable cells; format: cell-based; design: key to Orai1/STIM1 (IC50, μmol): A < 0.6 μmol; 0.6 μmol ≦ B ≦ 1.2 μmol; C > 1.2 μmol; — = no fit; settings: HEK-293 cells stably expressing human STIM1 and Orai1, 50% inhibition of Peak-Basal fluorescence signal; for IC50: read-out: Orai1/STIM1 (IC50, μmol)
T1 construct: expressed in transfected cells
T1 sequence (Q96D31 whole entry): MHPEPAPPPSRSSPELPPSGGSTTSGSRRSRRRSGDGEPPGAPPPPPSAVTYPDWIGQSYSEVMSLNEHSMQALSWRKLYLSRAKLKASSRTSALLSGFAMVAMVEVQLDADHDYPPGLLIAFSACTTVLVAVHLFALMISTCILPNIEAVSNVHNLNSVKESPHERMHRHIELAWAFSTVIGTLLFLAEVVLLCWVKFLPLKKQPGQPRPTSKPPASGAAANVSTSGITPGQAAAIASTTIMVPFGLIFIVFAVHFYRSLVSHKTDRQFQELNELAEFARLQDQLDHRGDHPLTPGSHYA
Description: A. Fluorescence-Based Assay of Store-Operated Calcium Entry in Orai1/STIM1 Stable Cells.
Cells stably expressing recombinant human STIM1 and Orai1 are generated by transfecting a human Orai1 expression plasmid (pcDNA3.1-Orai1-cmyc) into HEK-293 cells stably overexpressing human STIM1 (Roos et al. 2005 JCB 169(3): 435-445). Colonies of cells stably expressing both STIM1 and Orai1 proteins are selected and then subcloned by limiting dilution. Cells were cultured at 37° C./6% CO2 in complete medium with 10% FBS and appropriate selection markers.
The day prior to performing the assay Orai1/STIM1 stable cells are plated in 50 μL of complete medium at 90-95% confluence in a 384 well plate. Cells are grown at 37° C./6% CO2 overnight. On the day of the assay, 1.5 μM fluo-4-AM (Invitrogen) in complete medium is added to the cells, which are then incubated for 1 hour at RT. Cells are washed once in Ca^2+-free HBSS (Hank's buffered saline solution) and 35 μl of Ca^2+-free HBSS is added to each well. Test compounds are added to wells in a 10 μL Ca^2+-free HBSS solution, prepared at 4.5× the desired final concentration, and incubated for 30 minutes at RT. The initial baseline fluorescence signal is then measured with a FLIPR^384 (Molecular Devices) plate reader. Calcium entry is initiated by adding 5 μl of 10× CaCl2 (10 mM) in HBSS, and changes in cellular fluorescence are measured with the FLIPR^384 plate reader. In each well, the magnitude of the fluorescence signal as a result of calcium entry into the cell is determined by calculating the difference between the peak fluorescence signal measured after calcium addition and the initial baseline fluorescence signal (designated Peak-Basal). IC50 values are typically calculated as the concentration that inhibited 50% of the Peak-Basal signal.

RBL-2H3 cells = assay: Fluorescence-based assay of store-operated calcium entry in RBL-2H3 cells; format: cell-based, rat; settings: Rattus norvegicus, RBL-2H3; thapsigargin; 50% inhibition of Upslope; read-out: RBL-2H3 (IC50, μmol)
Description: B. Fluorescence-Based Assay of Store-Operated Calcium Entry in RBL-2H3 Cells.
RBL-2H3 cells are obtained from ATCC and maintained in complete medium with 10% FBS at 37° C./6% CO2.
The day prior to performing the assay, RBL-2H3 cells are plated in 50 μL of complete medium in a 384 well plate. Cells are grown at 37° C./6% CO2 overnight and grow to 50-60% confluence by the next day. On the assay day, 1.5 μM Fluo-4-AM dye (Invitrogen) in complete medium is added and incubated for 1 hour at RT. Cells are washed twice in Ca^2+-free HBSS buffer and 35 μL Ca^2+-free HBSS buffer is added to each well. 10 μL of a test compound prepared in a Ca^2+-free HBSS solution at 4.5× of the desired concentration is added to a well and incubated for 5 minutes at RT. 10 μL of thapsigargin prepared in a Ca^2+-free HBSS solution at 5.5× of the desired concentration (5.5 uM) is added to each well and incubated for an additional 25 minutes. The initial baseline fluorescence signal is measured with a FLIPR^384 (Molecular Devices) plate reader. 5 μL of 12× calcium in HBSS (12 mM) is added and changes in cellular fluorescence are measured with the FLIPR^384 plate reader. In each well, the change in the fluorescent signal as a function of time due to calcium entry into the cell is determined by calculating the difference between the fluorescent signal measured 7 seconds after calcium addition and the initial baseline fluorescence signal at time zero (t=0). This parameter is designated Upslope. The IC50 value is calculated as the concentration at which 50% of the Upslope is inhibited.

Chain of STIM1 and Orai1 (Q96D31 whole entry, species assumed): as the sequence (Q96D31 whole entry) above

Structure (SMILES)	IC50 (Orai1/STIM1) [nM]	IC50 (RBL-2H3 cells) [nM]	other results
NCCOB(c1ccccc1)c1ccccc1 [2-aminoethoxydiphenylborate]			store-operated Ca2+ entry (STIM1 and Orai1): completely blocked
Cc1nnsc1C(=O)Nc1ccc(-n2nc(C(F)(F)F)cc2C(F)(F)F)cc1 [BTP-2]			proliferation (Jurkat cells [1]): inhibits; SOCE (Jurkat cells [2]): inhibits
CCc1nn(-c2nccs2)cc1-c1ccc(NC(=O)c2cc(F)nc(F)c2)cc1F [Example 34, N-(4-(3-ethyl-1-(thiazol-2-yl)-1H-pyrazol-4-yl)-3-fluorophenyl)-2,6-difluoroisonicotinamide]	> 1200	< 600	
Cc1nn(-c2nccs2)cc1-c1cnc(NC(=O)c2c(F)ccc(F)c2F)cn1 [Example 27, 2,3,6-trifluoro-N-(5-(3-methyl-1-(thiazol-2-yl)-1H-pyrazol-4-yl)pyrazin-2-yl)benzamide]	< 600	< 600	
CCc1nn(-c2nccs2)cc1-c1ccc(NC(=O)c2ccccc2F)cc1 [Example 7, N-(4-(3-ethyl-1-(thiazol-2-yl)-1H-pyrazol-4-yl)phenyl)-2-fluorobenzamide]	< 600	< 600	
Cc1nn(-c2nccs2)cc1-c1ccc(NC(=O)c2ccccc2OC(F)F)cc1 [Example 5, 2-(difluoromethoxy)-N-(4-(3-methyl-1-(thiazol-2-yl)-1H-pyrazol-4-yl)phenyl)benzamide]	< 600	< 600	
Cc1nn(-c2nccs2)cc1-c1ccc(NC(=O)c2ccccc2OC(F)F)cc1F [Example 17, 2-(difluoromethoxy)-N-(3-fluoro-4-(3-methyl-1-(thiazol-2-yl)-1H-pyrazol-4-yl)phenyl)benzamide]	600 to 1200	< 600	
Cc1nn(-c2nccs2)cc1-c1cnc(NC(=O)c2c(F)cc(F)cc2F)cn1 [Example 28, 2,4,6-trifluoro-N-(5-(3-methyl-1-(thiazol-2-yl)-1H-pyrazol-4-yl)pyrazin-2-yl)benzamide]	< 600	< 600	
CCc1nn(-c2nccs2)cc1-c1ccc(NC(=O)c2c(F)cccc2F)cc1F [Example 31, N-(4-(3-ethyl-1-(thiazol-2-yl)-1H-pyrazol-4-yl)-3-fluorophenyl)-2,6-difluorobenzamide]	< 600	< 600	
CCc1nn(-c2nccs2)cc1-c1ccc(NC(=O)c2c(F)ccc(F)c2F)nc1 [Example 36, N-(5-(3-ethyl-1-(thiazol-2-yl)-1H-pyrazol-4-yl)pyridin-2-yl)-2,3,6-trifluorobenzamide]	< 600	< 600	
O=C(Nc1ccc(-c2cn(-c3nccs3)nc2C2CC2)c(F)c1)c1c(F)cccc1F [Example 41, N-(4-(3-cyclopropyl-1-(thiazol-2-yl)-1H-pyrazol-4-yl)-3-fluorophenyl)-2,6-difluorobenzamide]	> 1200	< 600	
CCc1nn(-c2nccs2)cc1-c1ccc(NC(=O)c2c(F)ccc(F)c2F)cc1F [Example 32, N-(4-(3-ethyl-1-(thiazol-2-yl)-1H-pyrazol-4-yl)-3-fluorophenyl)-2,3,6-trifluorobenzamide]	> 1200	< 600	
CCc1nn(-c2nccs2)cc1-c1ccc(NC(=O)c2c(F)cccc2F)nc1 [Example 35, N-(5-(3-ethyl-1-(thiazol-2-yl)-1H-pyrazol-4-yl)pyridin-2-yl)-2,6-difluorobenzamide]	< 600	< 600	

Continued, in another order:

IC50 (Orai1/STIM1) [nM]	IC50 (RBL-2H3 cells) [nM]	Structure (SMILES)	other results
600 to 1200	< 600	N#Cc1nn(-c2cc(F)ccc2F)cc1-c1ccc(NC(=O)c2c(F)cccc2F)nc1 [Example 62, N-(5-(3-cyano-1-(2,5-difluorophenyl)-1H-pyrazol-4-yl)pyridin-2-yl)-2,6-difluorobenzamide]	
< 600	< 600	Cc1cnc(-n2cc(-c3ccc(NC(=O)c4c(F)ccc(F)c4F)nc3)c(C)n2)s1 [Example 64, 2,3,6-trifluoro-N-(5-(3-methyl-1-(5-methylthiazol-2-yl)-1H-pyrazol-4-yl)pyridin-2-yl)benzamide]	
> 1200	< 600	O=C(Nc1ccc(-c2cn(-c3nccs3)nc2C2CC2)c(F)c1)c1c(F)cc(F)cc1F [Example 43, N-(4-(3-cyclopropyl-1-(thiazol-2-yl)-1H-pyrazol-4-yl)-3-fluorophenyl)-2,4,6-trifluorobenzamide]	
< 600	< 600	Cc1nn(-c2ccccc2F)cc1-c1ccc(NC(=O)c2c(F)cccc2F)nc1 [Example 57, 2,6-difluoro-N-(5-(1-(2-fluorophenyl)-3-methyl-1H-pyrazol-4-yl)pyridin-2-yl)benzamide]	
	< 600	CC(C)(C)c1nn(-c2nccs2)cc1-c1ccc(NC(=O)c2c(F)cccc2F)nc1 [Example 54, N-(5-(3-tert-butyl-1-(thiazol-2-yl)-1H-pyrazol-4-yl)pyridin-2-yl)-2,6-difluorobenzamide]	Orai1/STIM1 (IC50, μmol) (Orai1/STIM1): —
< 600	< 600	Cc1nn(-c2nccs2)cc1-c1ccc(NCc2c(F)cccc2F)cc1F [Example 75, N-(2,6-difluorobenzyl)-3-fluoro-4-(3-methyl-1-(thiazol-2-yl)-1H-pyrazol-4-yl)aniline]	
< 600	< 600	O=C(Nc1ccc(-c2cn(-c3nccs3)nc2C2CC2)cn1)c1c(F)cccc1F [Example 44, N-(5-(3-cyclopropyl-1-(thiazol-2-yl)-1H-pyrazol-4-yl)pyridin-2-yl)-2,6-difluorobenzamide]	
600 to 1200	< 600	CCc1nn(-c2nccs2)cc1-c1nnc(NC(=O)c2c(F)ccc(F)c2F)s1 [Example 68, N-(5-(3-ethyl-1-(thiazol-2-yl)-1H-pyrazol-4-yl)-1,3,4-thiadiazol-2-yl)-2,3,6-trifluorobenzamide]	
< 600	< 600	CCc1nn(-c2nccs2)cc1-c1ccc(NC(=O)c2ccccc2F)s1 [Example 74, N-(5-(3-ethyl-1-(thiazol-2-yl)-1H-pyrazol-4-yl)thiophen-2-yl)-2-fluorobenzamide]	
< 600	> 1200	Cc1nn(-c2cc(F)ccc2F)cc1-c1ccc(NC(=O)c2c(F)ccc(F)c2F)nc1 [Example 56, N-(5-(1-(2,5-difluorophenyl)-3-methyl-1H-pyrazol-4-yl)pyridin-2-yl)-2,3,6-trifluorobenzamide]	
